Tests used:
AAK1 = AAK1 (Homo sapiens, UniProt Q2M2I8); conditions: 1 mM ATP; inhibitor
Procedure: (§1) Kinase selectivity panel Kinome profiling was conducted by AssayQuant Technologies (Marlboro, MA) using Sox chromophore technology and Sox-based peptide substrates developed for human kinases in a 384-well format. Compounds were tested at 1 µM in the presence of 1 mM ATP.

AKT3 = AKT3 (Homo sapiens, UniProt Q9Y243); conditions: 1 mM ATP; inhibitor
Procedure: as §1

CAMK1G = CAMK1G (Homo sapiens, UniProt Q96NX5); conditions: 1 mM ATP; inhibitor
Procedure: as §1

CDK17 = CDK17 (Homo sapiens, UniProt Q00537); conditions: 1 mM ATP; inhibitor
Procedure: as §1

CRIK/CIT = CRIK/CIT (Homo sapiens, UniProt O14578); conditions: 1 mM ATP; inhibitor
Procedure: as §1

EPHA4 = EPHA4 (Homo sapiens, UniProt P54764); conditions: 1 mM ATP; inhibitor
Procedure: as §1

ERN1 = ERN1 (Homo sapiens, UniProt O75460); conditions: 1 mM ATP; inhibitor
Procedure: as §1

FGFR2 = FGFR2 (Homo sapiens, UniProt P21802); conditions: 1 mM ATP; inhibitor
Procedure: as §1

FGFR3 = FGFR3 (Homo sapiens, UniProt P22607); conditions: 1 mM ATP; inhibitor
Procedure: as §1

FLT1 = FLT1 (Homo sapiens, UniProt P17948); conditions: 1 mM ATP; inhibitor
Procedure: as §1

GRK1 = GRK1 (Homo sapiens, UniProt Q15835); conditions: 1 mM ATP; inhibitor
Procedure: as §1

GRK7 = GRK7 (Homo sapiens, UniProt Q8WTQ7); conditions: 1 mM ATP; inhibitor
Procedure: as §1

JAK2(JH1) = JAK2(JH1) (Homo sapiens, UniProt O60674); conditions: 1 mM ATP; inhibitor
Procedure: as §1

MAK = MAK (Homo sapiens, UniProt P20794); conditions: 1 mM ATP; inhibitor
Procedure: as §1

MAP3K11 = MAP3K11 (Homo sapiens, UniProt Q16584); conditions: 1 mM ATP; inhibitor
Procedure: as §1

MAP3K6/ASK2 = MAP3K6/ASK2 (Homo sapiens, UniProt O95382); conditions: 1 mM ATP; inhibitor
Procedure: as §1

MAPK14/P38A = MAPK14/P38A (Homo sapiens, UniProt Q16539); conditions: 1 mM ATP; inhibitor
Procedure: as §1

MAPKAPK2/MK2 = MAPKAPK2/MK2 (Homo sapiens, UniProt P49137); conditions: 1 mM ATP; inhibitor
Procedure: as §1

MAPKAPK3/MK3 = MAPKAPK3/MK3 (Homo sapiens, UniProt Q16644); conditions: 1 mM ATP; inhibitor
Procedure: as §1

MARK1 = MARK1 (Homo sapiens, UniProt Q9P0L2); conditions: 1 mM ATP; inhibitor
Procedure: as §1

MELK = MELK (Homo sapiens, UniProt Q14680); conditions: 1 mM ATP; inhibitor
Procedure: as §1

NEK6 = NEK6 (Homo sapiens, UniProt Q9HC98); conditions: 1 mM ATP; inhibitor
Procedure: as §1

NIM1 = target: T1, NIM1 (Homo sapiens, UniProt Q8IY84); conditions: 1 mM ATP; inhibitor
T1 construct: gene NIM1K
Procedure: as §1

PAK3 = PAK3 (Homo sapiens, UniProt O75914); conditions: 1 mM ATP; inhibitor
Procedure: as §1

PLK3 = PLK3 (Homo sapiens, UniProt Q9H4B4); conditions: 1 mM ATP; inhibitor
Procedure: as §1

PRKCB2/PKCB2 = target: T2, PRKCB2/PKCB2 (Homo sapiens, UniProt P05771); conditions: 1 mM ATP; inhibitor
T2 construct: gene PRKCB
Procedure: as §1

PRKCE/PKCE = PRKCE/PKCE (Homo sapiens, UniProt Q02156); conditions: 1 mM ATP; inhibitor
Procedure: as §1

PRKCG/PKCG = PRKCG/PKCG (Homo sapiens, UniProt P05129); conditions: 1 mM ATP; inhibitor
Procedure: as §1

PRKCI/PKCI = PRKCI/PKCI (Homo sapiens, UniProt P41743); conditions: 1 mM ATP; inhibitor
Procedure: as §1

RPS6KB2/P70S6KB = RPS6KB2/P70S6KB (Homo sapiens, UniProt Q9UBS0); conditions: 1 mM ATP; inhibitor
Procedure: as §1

STK24/MST3 = STK24/MST3 (Homo sapiens, UniProt Q9Y6E0); conditions: 1 mM ATP; inhibitor
Procedure: as §1

SYK = SYK (Homo sapiens, UniProt P43405); conditions: 1 mM ATP; inhibitor
Procedure: as §1

TBK1 = TBK1 (Homo sapiens, UniProt Q9UHD2); conditions: 1 mM ATP; inhibitor
Procedure: as §1

YES = target: T3, YES (Homo sapiens, UniProt P07947); conditions: 1 mM ATP; inhibitor
T3 construct: gene YES1
Procedure: as §1

DYRK1B = DYRK1B (Homo sapiens, UniProt Q9Y463); assay: biochemical; conditions: read-out: 1 µM GBD# (ibrutinib), % inhibition
LTK = LTK (Homo sapiens, UniProt P29376); assay: biochemical; conditions: read-out: 1 µM GBD# (ibrutinib), % inhibition
STK33 = STK33 (Homo sapiens, UniProt Q9BYT3); assay: biochemical; conditions: read-out: 1 µM GBD# (ibrutinib), % inhibition
TTBK1 = TTBK1 (Homo sapiens, UniProt Q5TCY1); assay: biochemical; conditions: read-out: 1 µM GBD# (ibrutinib), % inhibition

FGFR2, sequence (P21802 whole entry): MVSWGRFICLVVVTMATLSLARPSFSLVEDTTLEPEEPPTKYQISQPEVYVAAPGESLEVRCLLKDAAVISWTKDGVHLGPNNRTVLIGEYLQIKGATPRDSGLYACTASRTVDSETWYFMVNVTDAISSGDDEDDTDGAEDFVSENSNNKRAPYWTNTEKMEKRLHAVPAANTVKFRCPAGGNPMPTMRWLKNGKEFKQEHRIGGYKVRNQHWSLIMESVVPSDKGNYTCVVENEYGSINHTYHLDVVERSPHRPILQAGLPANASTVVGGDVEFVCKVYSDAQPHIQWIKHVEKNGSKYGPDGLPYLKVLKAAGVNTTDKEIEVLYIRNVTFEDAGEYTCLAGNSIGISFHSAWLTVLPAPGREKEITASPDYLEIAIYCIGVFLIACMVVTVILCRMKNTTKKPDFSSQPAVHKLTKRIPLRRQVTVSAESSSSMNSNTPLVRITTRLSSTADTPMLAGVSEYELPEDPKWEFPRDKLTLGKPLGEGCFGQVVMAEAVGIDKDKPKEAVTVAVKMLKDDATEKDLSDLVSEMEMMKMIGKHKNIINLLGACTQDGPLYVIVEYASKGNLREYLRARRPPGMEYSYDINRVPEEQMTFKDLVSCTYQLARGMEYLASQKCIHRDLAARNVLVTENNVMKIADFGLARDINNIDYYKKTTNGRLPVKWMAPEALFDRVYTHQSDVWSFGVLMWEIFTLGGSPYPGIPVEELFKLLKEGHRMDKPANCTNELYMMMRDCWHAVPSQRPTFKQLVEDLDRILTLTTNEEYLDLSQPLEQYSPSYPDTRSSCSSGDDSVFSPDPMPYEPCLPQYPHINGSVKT
T3 sequence (P07947 whole entry): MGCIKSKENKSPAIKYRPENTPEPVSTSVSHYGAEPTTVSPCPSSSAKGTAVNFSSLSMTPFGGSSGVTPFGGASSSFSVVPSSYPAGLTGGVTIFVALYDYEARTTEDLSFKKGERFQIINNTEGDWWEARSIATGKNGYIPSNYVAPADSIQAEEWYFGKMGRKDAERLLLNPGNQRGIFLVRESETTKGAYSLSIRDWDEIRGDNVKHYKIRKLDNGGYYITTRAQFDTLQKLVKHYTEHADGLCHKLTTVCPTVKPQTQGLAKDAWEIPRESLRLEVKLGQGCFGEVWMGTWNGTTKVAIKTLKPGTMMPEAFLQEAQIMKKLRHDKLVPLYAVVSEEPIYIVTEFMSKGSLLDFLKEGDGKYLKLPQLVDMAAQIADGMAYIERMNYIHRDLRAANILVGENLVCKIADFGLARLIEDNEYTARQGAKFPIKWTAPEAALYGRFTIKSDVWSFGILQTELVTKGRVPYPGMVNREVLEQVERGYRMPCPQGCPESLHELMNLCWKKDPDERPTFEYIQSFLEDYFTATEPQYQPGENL
RPS6KB2/P70S6KB, sequence (Q9UBS0 whole entry): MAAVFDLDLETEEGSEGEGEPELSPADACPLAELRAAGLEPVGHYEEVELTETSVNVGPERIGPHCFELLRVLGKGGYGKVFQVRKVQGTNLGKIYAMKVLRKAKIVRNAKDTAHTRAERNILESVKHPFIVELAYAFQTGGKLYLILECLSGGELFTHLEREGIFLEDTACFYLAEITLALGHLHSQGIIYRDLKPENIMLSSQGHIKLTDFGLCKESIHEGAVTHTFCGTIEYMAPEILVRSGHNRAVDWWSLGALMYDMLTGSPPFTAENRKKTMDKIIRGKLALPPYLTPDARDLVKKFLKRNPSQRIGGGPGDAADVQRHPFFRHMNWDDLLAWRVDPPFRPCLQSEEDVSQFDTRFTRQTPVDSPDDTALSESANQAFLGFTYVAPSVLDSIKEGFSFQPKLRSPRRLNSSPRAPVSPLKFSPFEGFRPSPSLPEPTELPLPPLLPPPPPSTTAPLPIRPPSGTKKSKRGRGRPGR
MAP3K11, sequence (Q16584 whole entry): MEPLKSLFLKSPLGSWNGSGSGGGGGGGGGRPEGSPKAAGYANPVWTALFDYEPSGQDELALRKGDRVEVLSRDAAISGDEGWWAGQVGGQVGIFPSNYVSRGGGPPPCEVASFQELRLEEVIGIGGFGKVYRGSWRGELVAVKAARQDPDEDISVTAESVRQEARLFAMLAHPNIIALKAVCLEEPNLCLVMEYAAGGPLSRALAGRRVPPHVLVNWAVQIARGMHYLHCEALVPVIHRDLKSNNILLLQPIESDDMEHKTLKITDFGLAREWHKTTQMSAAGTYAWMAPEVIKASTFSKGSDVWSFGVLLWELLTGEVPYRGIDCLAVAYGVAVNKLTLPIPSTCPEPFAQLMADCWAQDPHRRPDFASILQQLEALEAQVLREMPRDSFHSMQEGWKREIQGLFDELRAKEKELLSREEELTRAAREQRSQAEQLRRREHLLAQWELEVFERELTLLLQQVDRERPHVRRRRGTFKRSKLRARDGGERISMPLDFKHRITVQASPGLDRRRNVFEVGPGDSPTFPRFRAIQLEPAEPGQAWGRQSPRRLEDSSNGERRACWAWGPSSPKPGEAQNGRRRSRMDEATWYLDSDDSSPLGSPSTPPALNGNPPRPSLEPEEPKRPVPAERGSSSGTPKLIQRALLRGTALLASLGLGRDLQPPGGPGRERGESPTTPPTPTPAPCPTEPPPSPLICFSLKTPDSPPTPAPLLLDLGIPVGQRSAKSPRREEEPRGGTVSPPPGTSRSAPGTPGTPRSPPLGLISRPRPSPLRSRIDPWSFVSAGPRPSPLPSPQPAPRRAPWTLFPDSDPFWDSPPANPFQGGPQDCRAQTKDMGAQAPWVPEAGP
AKT3, sequence (Q9Y243 whole entry): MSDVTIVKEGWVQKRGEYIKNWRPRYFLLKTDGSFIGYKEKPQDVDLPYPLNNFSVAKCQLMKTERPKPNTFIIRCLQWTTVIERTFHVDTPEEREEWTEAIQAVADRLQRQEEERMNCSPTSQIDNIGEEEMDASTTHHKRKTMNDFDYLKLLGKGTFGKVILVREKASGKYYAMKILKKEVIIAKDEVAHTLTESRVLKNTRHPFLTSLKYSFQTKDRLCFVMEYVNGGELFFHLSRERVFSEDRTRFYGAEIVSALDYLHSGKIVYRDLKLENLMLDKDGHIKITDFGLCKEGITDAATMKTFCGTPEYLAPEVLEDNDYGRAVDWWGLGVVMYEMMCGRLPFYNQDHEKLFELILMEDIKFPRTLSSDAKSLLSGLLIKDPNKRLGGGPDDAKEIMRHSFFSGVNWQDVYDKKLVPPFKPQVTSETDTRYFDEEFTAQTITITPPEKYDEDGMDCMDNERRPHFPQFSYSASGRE
MAP3K6/ASK2, sequence (O95382 whole entry): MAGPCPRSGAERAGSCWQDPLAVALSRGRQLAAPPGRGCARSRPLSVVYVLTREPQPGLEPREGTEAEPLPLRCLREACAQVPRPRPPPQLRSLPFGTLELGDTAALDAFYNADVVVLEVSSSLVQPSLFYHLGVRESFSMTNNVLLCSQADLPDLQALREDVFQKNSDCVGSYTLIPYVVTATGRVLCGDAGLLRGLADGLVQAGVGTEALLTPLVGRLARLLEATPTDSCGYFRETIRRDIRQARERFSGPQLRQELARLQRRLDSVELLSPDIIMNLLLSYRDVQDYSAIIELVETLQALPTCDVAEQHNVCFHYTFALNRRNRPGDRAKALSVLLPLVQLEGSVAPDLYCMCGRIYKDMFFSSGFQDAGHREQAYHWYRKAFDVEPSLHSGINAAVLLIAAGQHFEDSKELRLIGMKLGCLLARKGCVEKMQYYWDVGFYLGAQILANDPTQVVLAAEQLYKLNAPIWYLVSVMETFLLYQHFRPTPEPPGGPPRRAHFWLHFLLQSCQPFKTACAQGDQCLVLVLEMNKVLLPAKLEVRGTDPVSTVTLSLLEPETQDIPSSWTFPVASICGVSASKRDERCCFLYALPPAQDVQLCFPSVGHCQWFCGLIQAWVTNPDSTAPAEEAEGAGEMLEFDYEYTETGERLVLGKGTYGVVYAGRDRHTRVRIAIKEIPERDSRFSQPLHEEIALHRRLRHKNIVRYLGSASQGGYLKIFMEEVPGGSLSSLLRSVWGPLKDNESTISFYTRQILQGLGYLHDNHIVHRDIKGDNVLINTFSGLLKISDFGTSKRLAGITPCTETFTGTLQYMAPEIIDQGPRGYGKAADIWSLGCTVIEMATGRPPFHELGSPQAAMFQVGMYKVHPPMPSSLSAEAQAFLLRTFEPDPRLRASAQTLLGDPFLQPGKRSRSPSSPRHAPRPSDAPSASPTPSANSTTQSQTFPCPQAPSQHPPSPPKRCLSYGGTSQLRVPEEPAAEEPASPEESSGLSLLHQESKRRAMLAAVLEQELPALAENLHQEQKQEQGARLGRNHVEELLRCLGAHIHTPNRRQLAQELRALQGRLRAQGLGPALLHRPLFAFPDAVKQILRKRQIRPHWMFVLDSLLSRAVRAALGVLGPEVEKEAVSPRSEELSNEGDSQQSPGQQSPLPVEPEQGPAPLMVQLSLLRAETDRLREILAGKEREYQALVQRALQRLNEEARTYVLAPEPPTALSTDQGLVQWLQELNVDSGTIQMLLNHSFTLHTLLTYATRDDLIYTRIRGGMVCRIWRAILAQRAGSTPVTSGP
STK24/MST3, sequence (Q9Y6E0 whole entry): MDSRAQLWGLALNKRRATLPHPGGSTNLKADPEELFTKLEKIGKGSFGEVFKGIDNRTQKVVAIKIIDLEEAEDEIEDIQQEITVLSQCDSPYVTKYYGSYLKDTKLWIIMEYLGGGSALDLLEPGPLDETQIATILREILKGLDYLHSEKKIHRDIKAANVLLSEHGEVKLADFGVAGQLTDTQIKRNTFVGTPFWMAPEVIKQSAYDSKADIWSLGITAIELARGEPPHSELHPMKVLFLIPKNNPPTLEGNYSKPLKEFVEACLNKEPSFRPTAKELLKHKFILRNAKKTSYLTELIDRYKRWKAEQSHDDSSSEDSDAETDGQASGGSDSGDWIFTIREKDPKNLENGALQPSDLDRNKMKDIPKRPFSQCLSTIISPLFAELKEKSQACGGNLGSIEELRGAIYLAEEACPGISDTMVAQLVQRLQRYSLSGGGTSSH

C=CC(=O)N1CCC[C@@H](n2nc(-c3ccc(Oc4ccccc4)cc3)c3c(N)ncnc32)C1 [Ibrutinib]
1 µM GBD00276 (ibrutinib), % inhibition (AAK1): 6.339% | 1 µM GBD00276 (ibrutinib), % inhibition (AKT3): 18.375% | 1 µM GBD00276 (ibrutinib), % inhibition (CAMK1G): 11.1875% | 1 µM GBD00276 (ibrutinib), % inhibition (CDK17): 5.795% | 1 µM GBD00276 (ibrutinib), % inhibition (CRIK/CIT): -0.4372% | 1 µM GBD00276 (ibrutinib), % inhibition (EPHA4): -4.922% | 1 µM GBD00276 (ibrutinib), % inhibition (ERN1): 1.571% | 1 µM GBD00276 (ibrutinib), % inhibition (FGFR2): 32.69% | 1 µM GBD00276 (ibrutinib), % inhibition (FGFR3): 31.81% | 1 µM GBD00276 (ibrutinib), % inhibition (FLT1): 31.87% | 1 µM GBD00276 (ibrutinib), % inhibition (GRK1): 10.14% | 1 µM GBD00276 (ibrutinib), % inhibition (GRK7): 3.056% | 1 µM GBD00276 (ibrutinib), % inhibition (JAK2(JH1)): 4.378% | 1 µM GBD00276 (ibrutinib), % inhibition (MAK): 9.929% | 1 µM GBD00276 (ibrutinib), % inhibition (MAP3K11): -6.395% | 1 µM GBD00276 (ibrutinib), % inhibition (MAP3K6/ASK2): 25.05% | 1 µM GBD00276 (ibrutinib), % inhibition (MAPK14/P38A): 4.135% | 1 µM GBD00276 (ibrutinib), % inhibition (MAPKAPK2/MK2): 8.023% | 1 µM GBD00276 (ibrutinib), % inhibition (MAPKAPK3/MK3): 9.483% | 1 µM GBD00276 (ibrutinib), % inhibition (MARK1): -2.409% | 1 µM GBD00276 (ibrutinib), % inhibition (MELK): -0.3303% | 1 µM GBD00276 (ibrutinib), % inhibition (NEK6): -7.047% | 1 µM GBD00276 (ibrutinib), % inhibition (NIM1): 12.91% | 1 µM GBD00276 (ibrutinib), % inhibition (PAK3): 14.04% | 1 µM GBD00276 (ibrutinib), % inhibition (PLK3): 16.45% | 1 µM GBD00276 (ibrutinib), % inhibition (PRKCB2/PKCB2): -15.35% | 1 µM GBD00276 (ibrutinib), % inhibition (PRKCE/PKCE): -10.08% | 1 µM GBD00276 (ibrutinib), % inhibition (PRKCG/PKCG): -20.25% | 1 µM GBD00276 (ibrutinib), % inhibition (PRKCI/PKCI): 5.685% | 1 µM GBD00276 (ibrutinib), % inhibition (RPS6KB2/P70S6KB): -2.111% | 1 µM GBD00276 (ibrutinib), % inhibition (STK24/MST3): -20.41% | 1 µM GBD00276 (ibrutinib), % inhibition (SYK): 6.138% | 1 µM GBD00276 (ibrutinib), % inhibition (TBK1): -3.072% | 1 µM GBD00276 (ibrutinib), % inhibition (YES): 45.59% | inhibition at 1 µM (DYRK1B): 18% | inhibition at 1 µM (LTK): -5.01% | inhibition at 1 µM (STK33): 3.6% | inhibition at 1 µM (TTBK1): 8.89%

From PMC10337138 (Acta Neuropathologica Communications, 2023)
